Series [1] in a line: Plasma kinetics in minipigs after single subcutaneous dosing, rilpivirine suspension with or without rHuPH20 (Example 1). Type of series: in vivo. As to conditions: minipig. As to the method:
Six minipigs with body weights ranging from 20 to 25 kg at the start of the study were used. The minipigs were fasted overnight before dosing. Three minipigs were dosed subcutaneously in the loin with 0.19 mL of the hyaluronidase solution (10,000 U/mL) followed by 900 mg/3 mL of the rilpivirine nanosuspension at the same injection site (treatment group A). Three minipigs were dosed subcutaneously in the loin with the 900 mg/3 mL of the control rilpivirine suspension (treatment group B—control). The injection volume was 3 mL rilpivirine suspension in both treatment groups. Method—Sequential Administration • 1. Flip-off rHuPH20 solution vial flip cap and wipe with isopropyl alcohol wipe. Allow to dry. Attach an 18 G transfer needle to a 1 mL syringe. • 2. Draw 0.35 mL into the syringe. • 3. Prime the syringe and set liquid level to 0.25 mL in the syringe. • 4. Remove transfer needle and attach syringe cap to 1 mL syringe. • 5. Mix rilpivirine by horizontally shaking the container 30 times over […] approximately 10 s (a back and forth arm movement=2 times). Ensure well mixed/fully re-suspended. • 6. Flip-off rilpivirine vial flip cap and wipe with isopropyl alcohol wipe. Allow to dry. • 7. Attach 18 G transfer needle to 5 mL syringe. • 8. Invert vial and draw>3.2 mL into 5 mL syringe mL (or as much as can be removed from vial). Injecting 1-2 mL of air will facilitate draw. • 9. Detach needle and attach a syringe cap to 5 mL syringe • 10. Invert syringe. Wait 5 minutes for bubbles to settle. • 11. Attach a winged infusion set to the rHuPH20 1 mL syringe. Invert syringe and prime off air so that liquid forms at the tip of the needle. (0.19 mL of rHuPH20 should be in the line) • 12. Insert the winged infusion set into the subcutaneous tissue of the target injection site by pinching the skin and inserting the needle at a 30-45 degree angle. • 13. Release the pinch. • 14. UNSCREW rHuPH20 syringe from infusion set maintaining the needle in the skin. […] It is advisable to have this syringe prepared while the technician is inserting the rHuPH20 infusion line. • 15. Remove the syringe cap from the 5 mL syringe with rilpivirine. Remove air and set the dose at 3.2 mL. • 16. Attach rilpivirine filled syringe to the open end of the infusion set. • 17. […] Plasma samples were analysed individually by means of a validated LC-MS/MS method. Pharmacokinetic Data Analysis • The pharmacokinetic profile of the blood plasma samples was evaluated using non-compartmental pharmacokinetic analysis (using individual Cp vs time profiles). Mean plasma concentrations and PK parameters (Cmax, Tmax, t1/2 and AUC values) were measured and the results are provided in Table 1.

The nature of series [2]: Plasma kinetics in minipigs over 6 months after single subcutaneous dosing, sequential, admixed or control (Example 2). Type of series: in vivo. As to conditions: minipig, sc, 1830 mg; for AUC(0-t): single s.c. about 1800 mg/6 mL. How it is done:
Nine minipigs with body weights ranging from 17 to 21 kg at the start of the study were used. The minipigs were fasted overnight before dosing. The minipigs were anaesthetized with propofol before dosing. Three minipigs were dosed subcutaneously in the loin with 0.44 mL of the hyaluronidase solution (10,000 U/mL) followed by 1818 mg/6.06 mL of the rilpivirine nanosuspension at the same injection site (treatment group A—sequential).
Three minipigs were dosed subcutaneously in the loin with the 1816 mg/6.5 mL admixed hyaluronidase solution (10,000 U/mL)+rilpivirine suspension (treatment group B— admixed). Three minipigs were dosed subcutaneously in the loin with the 1830 mg/6.1 mL of the control rilpivirine suspension (treatment group C—control). Vetbond 3M surgical sealant was used to seal the injection site to limit any leakage if necessary.
The control rilpivirine suspension was prepared and administered by the following method. • 1. Mix rilpivirine by horizontally shaking the container 30 times over approximately 25 cm within approximately 10 s (a back and forth arm movement=2 times). Ensure well mixed/fully re-suspended. • 2. Flip-off rilpivirine vial flip cap and wipe with isopropyl alcohol wipe. Allow to dry. • 3. Repeat steps 1-2 with a 2nd vial of rilpivirine. If there is a low draw, or unexpected amount of air/settling after draw, a 3rd vial may need to be prepared to ensure the proper dose level can be filled into the syringe. • 4. Attach 18 G transfer needle to 10 mL syringe. • 5. Invert vial and draw>3.2 mL into 10 mL syringe (or as much as can be removed from vial). Injecting 1-2 mL of air will facilitate draw. • Repeat step 5 with the 2nd vial so that at approximately 6.5 mL of drug product is in the 10 mL syringe. Important: see note in (step 3) about preparing a 3rd vial in case of low volume draw. • 6. Detach needle and attach a syringe cap to 10 mL syringe • 7. Wait 5 minutes for bubbles to settle with syringe inverted. • 8. Remove syringe cap, invert syringe prime off air. • 9. Attach a winged infusion set. • 10. Set dose at 6.1 mL after filling infusion set line until liquid forms at tip of needle (0.44 mL undeliverable/dead volume will be in infusion set). • 11. Insert the winged infusion set into the subcutaneous tissue of the target injection site by pinching the skin and inserting the needle at a 30-45 degree angle. • 12. Release the pinch. • 13. Inject over 2 minutes at a constant rate until the syringe plunger bottoms out • 14. Remove the winged infusion set and dispose. • 15. Record any site leakage.
The sequential administration of hyaluronidase solution and then rilpivirine suspension was performed according to the following method. • 1. Flip-off rHuPH20 solution vial flip cap and wipe with isopropyl alcohol wipe. Swirl vial. Allow vial stopper to dry. […]

These results are taken from patent US20230405001A1, “TREATMENT OR PREVENTION OF HIV INFECTION” (Janssen Sciences Ireland Unlimited Company, priority 2020, published 2023).

In series [1] (single s.c. 900 mg/3 mL, N=3), `Cc1cc(/C=C/C#N)cc(C)c1Nc1ccnc(Nc2ccc(C#N)cc2)n1` [Rilpivirine, 4-[[4-[[4-[(1E)-2-cyanoethenyl]-2,6-dimethylphenyl]amino]-2-pyrimidinyl]amino]benzonitrile] came in with a λz of 0.0009 ± 0.00009 h⁻¹. Moreover, in series [1] (single s.c. 900 mg/3 mL, median, N=3), the Tlast worked out at 2160 h. Moreover, the AUC(0-t) came to 22300 ± 2930 ng·h/mL in series [1] (plasma, sc, single s.c. 900 mg/3 mL, N=3); 22000 ng·h/mL in series [2] (N=3, read-out: Mean AUC0-1 months); 78300 ng·h/mL in series [2] (N=3, read-out: Mean AUC0-6 months). Further, the Cmax in series [1] (plasma, sc, single s.c. dose in the loin, 900 mg/3 mL rilpivirine suspension, N=3, mean ± SD) was determined as 28.5 ± 9.56 ng/mL; in series [2] (control group C, single animal, at 7 hours post-administration, read-out: Cmax of the excluded outlier minipig), 563 ng/mL; in series [2] (single s.c. about 1800 mg/6 mL rilpivirine nanosuspension, N=3, control value excludes an outlier minipig, read-out: Mean Cmax), 49 ng/mL.
